Experimental data: paper PMC6175296 (Clinical Pharmacology and Therapeutics, 2017)
“Also recorded” adds a separate entry of the source. Like-named read-outs stand apart in the source and are kept apart here. One block for each compound: values may come before it.

How the values were obtained:
[1] = assay type: in vivo, humans
[2] = cited from earlier work
[3] = tested on: CYP2C8; conditions: read-out: CYP2C8 Ki; microsomal protein concentration 0.25 mg/mL; cited from earlier work
[4] = for AUC(0-inf): AUC0–∞; for tmax: median (range)
[5] = cited from earlier work; remark: listed apart in the source
[6] = cited from earlier work; remark: listed apart in the source
[7] = tested on: OATP1B1; conditions: read-out: OATP1B1 Ki; “Clopidogrel 25” model; published value; cited from earlier work
[8] = target: T1, CYP2C8 (Homo sapiens, UniProt P10632); assay: In vivo CYP2C8 inhibition judged from montelukast pharmacokinetics; conditions: montelukast as CYP2C8 probe substrate
T1 sequence (P10632 1-490): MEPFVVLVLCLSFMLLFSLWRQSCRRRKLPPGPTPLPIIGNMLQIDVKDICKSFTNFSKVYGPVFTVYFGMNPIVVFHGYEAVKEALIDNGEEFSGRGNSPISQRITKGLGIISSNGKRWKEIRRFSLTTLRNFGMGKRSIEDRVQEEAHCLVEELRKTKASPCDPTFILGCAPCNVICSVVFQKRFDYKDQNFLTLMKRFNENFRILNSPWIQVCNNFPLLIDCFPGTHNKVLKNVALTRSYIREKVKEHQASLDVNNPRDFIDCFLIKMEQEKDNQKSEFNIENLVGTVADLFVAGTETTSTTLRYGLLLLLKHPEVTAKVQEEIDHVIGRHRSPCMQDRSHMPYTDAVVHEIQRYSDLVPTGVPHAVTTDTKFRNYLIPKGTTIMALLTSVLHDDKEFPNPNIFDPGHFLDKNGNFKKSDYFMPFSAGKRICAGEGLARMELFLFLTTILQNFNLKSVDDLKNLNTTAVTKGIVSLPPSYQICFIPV

[9] = after 300 mg clopidogrel oral, day 1, median (range)
[10] = after 60 mg prasugrel oral, day 1, median (range)
[11] = both, human, plasma, po, 300 mg

AUC0-13h [1, 9]: 38,500 (22,000–53,400) ng·h/mL
Cmax [1, 9]: 11,500 (7,410–19,700) ng/mL
tmax [1, 9]: 0.92 (0.92–1.5) h
t½ [1, 9]: 7.3 (5.8–9.2) h
Structure (SMILES): O=C(O)[C@H](c1ccccc1Cl)N1CCc2sccc2C1 [Clopidogrel carboxylic acid]

AUC(0-inf) ([4]; both, human, plasma, oral, 10 mg, placebo phase, geometric mean (geometric CV)): 3020 ng·h/mL
tmax ([4]; both, human, plasma, oral, 10 mg, placebo phase): 3.5 h
AUC(0-inf) ([4]; both, human, plasma, oral, clopidogrel phase, geometric mean (geometric CV)): 5990 ng·h/mL
AUC(0-inf) ([4]; both, human, plasma, oral, prasugrel phase, geometric mean (geometric CV)): 2800 ng·h/mL
tmax ([4]; both, human, plasma, oral, clopidogrel phase): 4.5 h
tmax ([4]; both, human, plasma, oral, prasugrel phase): 3 h
half-life ([4]; both, human, plasma, oral, t½, clopidogrel phase, geometric mean (geometric CV)): 8.2 h
t½ ([4]; placebo phase, geometric mean (geometric CV)): 4.51 (18) h
prolongation in t½ ([4]; prasugrel phase vs placebo): 15%
t½ prolongation by prasugrel ([4]; prasugrel phase vs placebo): 1.15 fold
t½ ([4]; prasugrel phase, geometric mean (geometric CV)): 5.16 (20) h
Structure (SMILES): CC(C)(O)c1ccccc1CC[C@@H](SCC1(CC(=O)O)CC1)c1cccc(/C=C/c2ccc3ccc(Cl)cc3n2)c1 [Montelukast]
AUC increase by clarithromycin [2]: 2.4 fold
CYP2C8 inhibition in humans [2]: not a significant inhibitor of CYP2C8
decrease in exposure by fluconazole [2]: 30–40%
bound to plasma proteins [5]: about 99.8%
oral bioavailability [6]: 60–70%

AUC0-13h [1, 9]: 16,200 (7,030–34,200) ng·h/mL
Cmax [1, 9]: 3,290 (1,470–9,680) ng/mL
tmax [1, 9]: 1.5 (0.92–3.0) h
t½ [1, 9]: 4.6 (3.9–6.6) h
Structure (SMILES): O=C(O)[C@H]1O[C@@H](OC(=O)[C@H](c2ccccc2Cl)N2CCc3sccc3C2)[C@H](O)[C@@H](O)[C@@H]1O [Clopidogrel acyl‐β‐D‐glucuronide]
Ki [7]: 5450 nM

AUC0-13h [1, 9]: 32.0 (17.0–101) ng·h/mL
Cmax [1, 9]: 23.4 (12.6–80.1) ng/mL
tmax [1, 9]: 0.92 (0.92–1.5) h
t½ [1, 9]: 3.4 (0.84–4.8) h
Structure (SMILES): COC(=O)[C@H](c1ccccc1Cl)N1CC[C@@H](S)/C(=C\C(=O)O)C1 [Clopidogrel active metabolite]

AUC(0-t) [1, 11]: 13.2 ng·h/mL
Cmax [1, 11]: 3.53 ng/mL
half-life [1, 11]: 4.8 h
tmax [1, 11]: 1.5 h
Structure (SMILES): COC(=O)[C@H](c1ccccc1Cl)N1CCc2sccc2C1 [Clopidogrel]
clinically relevant inhibition of CYP3A4 or OATP1B1 ([2]; pitavastatin and simvastatin as substrates): not a clinically relevant inhibitor of CYP3A4 or OATP1B1
CYP2C8 inhibition in humans (conclusion) [8]: at least a moderate inhibitor of CYP2C8; also recorded: weaker CYP2C8 inhibitor than gemfibrozil

The next lines start with the compound.

Structure (SMILES): O=C(O)/C=C1/CN(C(C(=O)C2CC2)c2ccccc2F)CCC1S (centres unmarked) [Prasugrel active metabolite (R‐138727)]
AUC0-13h [1, 10]: 495 (249–1090) ng·h/mL
Cmax [1, 10]: 428 (210–865) ng/mL
tmax [1, 10]: 0.92 (0.92–0.92) h
t½ [1, 10]: 3.9 (3.2–5.5) h

Structure (SMILES): CCc1ccc(CCOc2ccc(CC3SC(=O)NC3=O)cc2)nc1 (centres unmarked) [Pioglitazone]
AUC increase by gemfibrozil ([2]; previous studies): about 3 fold
AUC increase by clopidogrel ([2]; previously reported): 2.0–2.1 fold

Structure (SMILES): O=C1C=C2CN(C(C(=O)C3CC3)c3ccccc3F)CCC2S1 (centres unmarked) [Prasugrel inactive metabolite (R‐95913)]
AUC0-13h [1, 10]: 495 (247–1140) ng·h/mL
Cmax [1, 10]: 240 (105–692) ng/mL
tmax [1, 10]: 0.92 (0.92–1.5) h
t½ [1, 10]: 7.1 (6.0–9.2) h

Structure (SMILES): CC(=O)Oc1cc2c(s1)CCN(C(C(=O)C1CC1)c1ccccc1F)C2 (centres unmarked) [Prasugrel]
CYP2C8 inhibition in humans (conclusion) [8]: not a clinically relevant CYP2C8 inhibitor; also recorded: not a significant inhibitor of CYP2C8
